Patent publication US20040229219A1 (priority 2003, published 2004)

What was measured:
measles virus = conditions: cited from earlier work
HIV-1 = conditions: cited from earlier work

CC[C@H](C)[C@H](NC(=O)[C@H](CC(C)C)NC(=O)[C@H](CC(C)C)NC(=O)[C@H](Cc1c[nH]c2ccccc12)NC(=O)[C@@H](NC(=O)[C@H](Cc1ccc(O)cc1)NC(=O)[C@H](Cc1c[nH]c2ccccc12)NC(=O)[C@@H]1CCCN1C(=O)[C@H](Cc1c[nH]c2ccccc12)NC(=O)[C@H](CCCCN)NC(=O)[C@@H](NC(=O)[C@H](Cc1ccc(O)cc1)NC(=O)[C@H](CCSC)NC(=O)[C@H](CCC(=O)O)NC(=O)[C@H](Cc1ccc(O)cc1)NC(=O)[C@@H](NC(=O)CNC(=O)[C@@H](NC(=O)[C@H](CCC(=O)O)NC(=O)[C@H](CCCCN)NC(=O)[C@H](CC(C)C)NC(=O)[C@H](CC(N)=O)NC(=O)[C@@H](NC(=O)[C@H](Cc1ccc(O)cc1)NC(=O)[C@H](CO)NC(=O)[C@H](CCC(=O)O)NC(=O)[C@H](CC(N)=O)NC(=O)[C@H](CC(C)C)NC(=O)[C@H](CCCCN)NC(=O)[C@H](CCCCN)NC(=O)[C@@H](NC(=O)[C@H](C)NC(=O)[C@H](CC(=O)O)NC(=O)[C@H](CCC(N)=O)NC(=O)[C@@H](NC(=O)[C@@H](N)CCCNC(=N)N)[C@@H](C)CC)[C@@H](C)CC)[C@@H](C)CC)C(C)C)[C@@H](C)O)C(C)C)C(C)C)C(=O)O [SEQ ID NO: 52]
non-specific cytotoxic effects of the peptide on cells (morphology) (L2 cells): normal morphology

carbobenzoxy derivative of phenylalanine-phenylalanine-glycine [z-FFG]
activity against measles virus (measles virus): effective

enfuvirtide
concentration range that suppresses HIV-1 infection (HIV-1): nanomolar range
